Data from patent publication US20110130384A1, “AMIDE COMPOUND” (TAKEDA PHARMACEUTICAL COMPANY LIMITED, priority 2008, published 2011).

What follows are molecules tested against T1, human GPR52 (Homo sapiens, UniProt Q9Y2T5) (assay: Increase of intracellular cAMP concentration in human GPR52-expressing CHO cell (AlphaScreen cAMP assay)). Conditions: 1 μM test compound, human GPR52-expressing CHO(dhfr-) cells, 37° C. for 30 min; intracellular cAMP with 1 μM Reference Example 124 = 100%, DMSO = 0%.
T1 construct: expressed in transfected cells; host or cells: CHO(dhfr-) cells
T1 sequence (Q9Y2T5 whole entry): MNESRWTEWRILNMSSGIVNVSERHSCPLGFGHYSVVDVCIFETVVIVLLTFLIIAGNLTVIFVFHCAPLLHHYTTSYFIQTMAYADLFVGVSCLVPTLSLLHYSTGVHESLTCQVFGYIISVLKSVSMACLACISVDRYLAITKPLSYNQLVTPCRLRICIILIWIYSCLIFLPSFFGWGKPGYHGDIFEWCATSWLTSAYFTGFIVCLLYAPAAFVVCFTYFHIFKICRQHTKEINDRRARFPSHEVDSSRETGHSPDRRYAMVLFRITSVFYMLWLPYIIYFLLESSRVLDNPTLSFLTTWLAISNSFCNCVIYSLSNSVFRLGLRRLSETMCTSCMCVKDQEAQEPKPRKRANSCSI
Assay type: cell-based
Procedure: Increase of Intracellular cAMP Concentration in Human GPR52-Expressing CHO Cell
Using OptiPlate-384 (PerkinElmer Inc.), 1×10^4 human GPR52-expressing CHO(dhfr-) cells were incubated together with 1 μM of a test compound in an assay buffer (30 μL, HBSS (containing Ca^2+ and Mg^2+), 0.5% BSA, 100 μm IBMX, 100 μm Ro20-1724, 5 mM HEPES (pH 7.55)) at 37° C. for 30 min. Thereafter, according to the protocol of AlphaScreen cAMP Assay Kit (PerkinElmer Inc.), the intracellular cAMP concentration was measured by EnVision (PerkinElmer Inc.). The GPR52 agonist activity was calculated, assuming the intracellular cAMP concentration in the presence of 1 μM 3-(6-(2-(3,4-dimethoxyphenyl)ethoxy)pyridin-2-yl)-N-(2-pyrrolidin-1-ylethyl)benzamide (Reference Example 124) to be 100% and assuming the intracellular cAMP concentration when DMSO was added instead of the test compound to be 0%.

SMILES	GPR52 agonist activity (%)
O=C(NCCO)c1cccc(-c2ccc3c(c2)C(Oc2ccc(Cl)cc2Cl)CC3)c1 (stereo not drawn) [Example 74, 3-[3-(2,4-dichlorophenoxy)-2,3-dihydro-1H-inden-5-yl]-N-(2-hydroxyethyl)benzamide]	76
C[S+]([O-])CCNC(=O)c1cccc(-c2ccc3c(c2)C(Oc2ccc(Cl)cc2Cl)CC3)c1 (stereo not drawn) [Example 76, 3-[3-(2,4-dichlorophenoxy)-2,3-dihydro-1H-inden-5-yl]-N-[2-(methylsulfinyl)ethyl]benzamide]	80
CS(=O)(=O)CCNC(=O)c1cccc(-c2ccc3c(c2)C(Oc2ccc(Cl)cc2Cl)CC3)c1 (stereo not drawn) [Example 77, 3-[3-(2,4-dichlorophenoxy)-2,3-dihydro-1H-inden-5-yl]-N-[2-(methylsulfonyl)ethyl]benzamide]	73
O=C(Nc1cccnc1)c1cccc(-c2ccc3c(c2)C(Oc2ccc(Cl)cc2Cl)CC3)c1 (stereo not drawn) [Example 80, 3-[3-(2,4-dichlorophenoxy)-2,3-dihydro-1H-inden-5-yl]-N-pyridin-3-ylbenzamide]	70
O=C(Nc1nccs1)c1cccc(-c2ccc3c(c2)C(Oc2ccc(Cl)cc2Cl)CC3)c1 (stereo not drawn) [Example 82, 3-[3-(2,4-dichlorophenoxy)-2,3-dihydro-1H-inden-5-yl]-N-1,3-thiazol-2-ylbenzamide]	67

Results, then the molecule that gave them:

GPR52 agonist activity (%)	SMILES
59	O=C(NC1CC1)c1cccc(-c2ccc3c(c2)C(Oc2ccc(Cl)cc2Cl)CC3)c1 (stereo not drawn) [Example 78, N-cyclopropyl-3-[3-(2,4-dichlorophenoxy)-2,3-dihydro-1H-inden-5-yl]benzamide]
70	NC(=O)CNC(=O)c1cccc(-c2ccc3c(c2)C(Oc2ccc(Cl)cc2Cl)CC3)c1 (stereo not drawn) [Example 83, N-(2-amino-2-oxoethyl)-3-[3-(2,4-dichlorophenoxy)-2,3-dihydro-1H-inden-5-yl]benzamide]
59	O=C(NCCO)c1cccc(-c2ccc3c(c2)C(Nc2ccc(Cl)cc2Cl)CO3)c1 (stereo not drawn) [Example 87, 3-[3-[(2,4-dichlorophenyl)amino]-2,3-dihydro-1-benzofuran-5-yl]-N-(2-hydroxyethyl)benzamide]
65	O=C(NCCO)c1cccc(-c2ccc3c(c2)C(c2ccc(Cl)cc2Cl)CCO3)c1 (stereo not drawn) [Example 90, 3-[4-(2,4-dichlorophenyl)-3,4-dihydro-2H-chromen-6-yl]-N-(2-hydroxyethyl)benzamide]
